# Tests used:
# [1] = test system: priming of allogeneic T cell responses by C57Bl6/J splenocytes; test: One-way mixed leukocyte reaction (MLR), stimulator splenocytes treated in vitro; format: cell-based, mouse; conditions: splenocytes cultured with compound 72 hr, added at 0, 24 and 48 hr
# Description: Mean proliferation of 100K BALB/C responders as measured by ^3H-Thymidine uptake after exposure to 200K irradiated BL6 stimulators that were treated with the indicated compound, 1×DMSO or 1× EtOH prior to initiation of the mixed leukocyte reaction (MLR). 1×DMSO serves as the allogeneic MLR positive control for all compounds with the exception of HLM85321 for which 1× EtOH is the positive control. [*p<0.05, **p<0.01].
# Spleen cells and lymphe node LN cells are normally robust stimulators of allogeneic T cell responses in the one-way mixed leukocyte reaction (MLR) assay, but they are very poor stimulators when obtained from mice with germline or induced SHIP-deficiency. […]
# Mixed leukocyte reactions (MLR): Following RBC lysis, irradiated (2000 Rads) BL6 splenocytes (stimulators) at 8×10^5 cells/well were combined with BALB/c splenocytes (responders) at 4×10^5 cells/well in a one-way MLR assay. […] Incorporated [3H]thymidine was quantitated using a Packard TopCount NXT. Specific [3H]thymidine incorporation into genomic DNA was calculated as the average of the mean (±SEM) of sextuplicate wells. […]
# SHIP1 = molecular target: T1, SHIP1 (Mus musculus, UniProt Q9ES52); test: Fluorescence polarization (FP) assay of SHIP1 enzymatic activity; format: biochemical; conditions: confirmatory FP assay of screening hits
# T1 construct: The asterisk in lanes 1 and 3 indicates the ˜145 kD full-length SHIP protein; His tag (C); made in house; host or cells: E. coli Rosetta-Gami 2 (DE3) pLys
# T1 sequence (Q9ES52 1-1191): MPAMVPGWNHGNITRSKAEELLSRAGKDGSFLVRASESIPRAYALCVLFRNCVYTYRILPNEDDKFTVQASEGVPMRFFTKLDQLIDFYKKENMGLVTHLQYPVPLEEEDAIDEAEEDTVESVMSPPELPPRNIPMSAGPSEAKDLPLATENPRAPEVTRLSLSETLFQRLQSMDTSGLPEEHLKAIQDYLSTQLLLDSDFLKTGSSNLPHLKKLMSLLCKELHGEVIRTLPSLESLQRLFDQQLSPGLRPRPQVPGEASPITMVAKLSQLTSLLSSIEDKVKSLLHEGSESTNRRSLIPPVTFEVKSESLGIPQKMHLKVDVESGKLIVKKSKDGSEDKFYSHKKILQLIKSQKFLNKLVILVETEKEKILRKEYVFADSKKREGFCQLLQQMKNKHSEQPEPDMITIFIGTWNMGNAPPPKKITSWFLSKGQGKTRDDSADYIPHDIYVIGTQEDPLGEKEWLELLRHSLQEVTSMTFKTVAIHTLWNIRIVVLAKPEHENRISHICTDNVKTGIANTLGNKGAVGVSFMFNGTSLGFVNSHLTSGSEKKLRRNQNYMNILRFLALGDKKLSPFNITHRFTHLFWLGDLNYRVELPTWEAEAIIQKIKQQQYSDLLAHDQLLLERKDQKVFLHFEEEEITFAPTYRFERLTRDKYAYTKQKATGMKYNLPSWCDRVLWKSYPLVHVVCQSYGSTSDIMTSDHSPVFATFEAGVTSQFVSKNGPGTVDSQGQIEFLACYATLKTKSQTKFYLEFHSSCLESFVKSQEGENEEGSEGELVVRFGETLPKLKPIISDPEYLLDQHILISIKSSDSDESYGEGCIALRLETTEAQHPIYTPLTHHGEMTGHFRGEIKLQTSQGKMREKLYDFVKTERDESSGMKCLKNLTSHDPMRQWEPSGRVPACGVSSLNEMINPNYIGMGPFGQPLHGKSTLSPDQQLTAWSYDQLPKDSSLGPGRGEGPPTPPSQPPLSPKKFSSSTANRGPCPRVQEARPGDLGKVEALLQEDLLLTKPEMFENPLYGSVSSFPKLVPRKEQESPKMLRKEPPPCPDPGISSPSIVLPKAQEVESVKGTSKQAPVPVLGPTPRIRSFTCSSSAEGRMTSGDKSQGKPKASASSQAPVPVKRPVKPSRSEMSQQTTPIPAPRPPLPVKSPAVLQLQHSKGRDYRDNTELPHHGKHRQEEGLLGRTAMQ
# From the text: SHIP is detectable in this expression system as a ˜145 kD protein (FIG. 1a, lane 1). Because of an in-frame Histidine (His) tag on the COOH terminus of SHIP, it can then be purified from E. coli lysates by FPLC over a Ni-containing resin. (FIG. 1a, lane 3). Purified SHIP was routinely obtained in sufficient quantities, using this E. coli expression system and FPLC purification, to conduct high-throughput screening (HTS) of chemical libraries for compounds that inhibit SHIP activity. However, prior to screening, a fluorescence polarization (FP) assay that detects SHIP activity in either a 96- or […] format, seen in FIG. 1b, screen was established. SHIP generates PI(3,4)P2 from its PI(3,4,5)P3 substrate. In the FP assay enzymatic generation of PI(3,4)P2 by SHIP reduces polarized fluorescence (mP) because the fluorescent PI(3,4)P2 “probe” is displaced from a detector protein that binds specifically to PI(3,4)P2. The FP assay is highly specific for SHIP activity in these lysates. No significant 5′-inositol phosphatase activity was detected in E. coli lysates harboring an ‘empty’ pet24b expression vector insert when FPLC fractions where SHIP typically elutes with the imidazole step gradient are analyzed in the FP assay (FIG. 1c).
# After preparing purified SHIP and establishing the FP assay, two different chemical libraries, comprising a total of ˜2100 different chemical compounds, were screened. Seventeen compounds capable of inhibiting SHIP activity at μM concentrations were identified in this screen. The compounds were verified for SHIP activity inhibition by repeating the FP assay with the compounds obtained from their respective wells in the replicates of the masterplates for these libraries FIGS. 2-6).
# A fluorescence polarization (FP) assay to detect and quantify SHIP2 activity has been previously described [Drees B E, et al., Comb Chem High Throughput Screen (2003) 6(4):321-330], but no assay has been described for the detection of SHIP1. A fluorescence polarization (FP) assay was developed to detect the activity of recombinant SHIP1 (see FIGS. 15a and b) and the FP assay was utilized as a rapid screen to detect compounds in chemical libraries that have inhibitory activity against SHIP1. This screen identified 3α-aminocholestane as a potent inhibitor of SHIP1 enzymatic activity (FIG. 15c). […] This high degree of selectivity could be important, since loss of PTEN function promotes malignancy in parenchymal and hematopoietic tissues. [Yuan T L & Cantley L C Oncogene (2008) 27(41):5497-5510; Zhang J, et al., Nature (2006) 441(7092):518-522; Yilmaz O H, et al., Nature (2006) 441(7092):475-482]
# Assay of SHIP1 enzymatic activity: A fluorescent polarization (FP) assay that detects the 5′-inositol phosphatase activity of SHIP1 was developed based on a previously established protocol [Drees B E, et al., Comb Chem High Throughput Screen (2003) 6(4):321-330] and was obtained from Echelon Biosciences (Salt Lake City, USA). Modifications of the protocol included the application of SHIP1 in the assay and an increase in the concentration of MgCl2 to […] to maximize the activity of SHIP1 in this assay. Each enzymatic reaction was performed in a 96 well working plate and added in the following order and concentration: Recombinant SHIP1 (0.1 μg) in PBS+20 mM MgCl2, 100 μM of each individual compound from the NCI Diversity Set and then PI(3,4,5)P3 substrate diluted 1:10 in H2O. The enzymatic reaction was incubated for 30 min at room temperature. The detector, reaction mixture and probe were then combined according to the SHIP2 protocol. Malachite Green Phosphatase Assay Kit was obtained from Echelon Biosciences (Salt Lake City, USA). Assays for SHIP2 were performed according to the manufacturer's protocol. The concentration of SHIP1 and SHIP2 per reaction mixture was […]. PTEN was used at the concentration recommended by the manufacturer.
SHIP inhibitory activity in FP assay (SHIP1),SMILES,ability of splenocytes to prime allogeneic T cell responses by BALB/C responders (3H-thymidine uptake) [1]
,"Cc1ccc(C)c(/C(=N/N=C(N)N)C2CC2)c1.Cl [NSC75513, 2-[(E)-[cyclopropyl-(2,5-dimethylphenyl)methylidene]amino]guanidine chloride]",significantly inhibited
SHIP inhibitory activity,O=C1OC2(c3ccc(O)cc3Oc3cc(O)ccc32)c2c1c(-c1ccccc1)c(-c1ccccc1)c(-c1ccccc1)c2-c1ccccc1 [NSC 119886],
SHIP inhibitory activity,O=C1CN2CCN(CC2)CC(=O)Nc2ccc(cc2)S(=O)(=O)c2ccc(cc2)NC(=O)CN2CCN(CC2)CC(=O)Nc2ccc(cc2)S(=O)(=O)c2ccc(cc2)N1 [NSC 36806],
SHIP inhibitory activity,CCOC(=O)c1c(C)c(C)n2c1NC(=O)C2 [NSC 624983],

# — patent US9006221B2, “Method of modulating ship activity” (H. Lee Moffitt Cancer Center and Reserach Institute, Inc., priority 2008, dated 2015)
